From patent US20130143886A1, “METHODS FOR PRESERVING AND/OR INCREASING RENAL FUNCTION USING XANTHINE OXIDOREDUCTASE INHIBITORS” (priority 2006, published 2013)

What was measured:
remnant kidney (RK) rats [1] = assay: Proteinuria in remnant kidney rats; type: in vivo, Male Wistar rats
Procedure: Male Wistar rats (295-340 g) were used to produce rats with remnant kidney (RK) as follows. […] Rats were then assigned to one of four treatment groups: Group 1, RK control rats (n=7); Group 2, RK+febuxostat (Fx) rats (n=8); Group 3, RK+oxonic acid (OA) rats (n=6); and Group 4, RK+OA+Fx (n=10). Oxonic acid (OA) (Sigma-Aldrich, St Louis Mo., USA), administered at 750 mg/kg body weight daily by oral gavage, was given starting the day after the ⅚ nephrectomy. […] Body weight (beginning just before surgery) and food and water intakes were measured daily. Systolic blood pressure, measured in conscious rats by a tail cuff sphygmomanometer, and plasma uric acid (UA) levels were measured at just before surgery (namely, at baseline) and at the end of the four weeks. Proteinuria was measured at baseline and at the end of two and four weeks. […] Food and water intake were determined daily. Systolic blood pressure (SBP) was measured by a tail-cuff sphygmomanometer using an automated system (XBP-100; Kent Scientific Co, Torrington, Conn., USA) in conscious animals. […] Plasma uric acid was quantified using a commercial kit (Diagnostic Chemicals Ltd, Charlottetown, PEI, Canada). […]

remnant kidney (RK) rats [2] = assay: Tubulointerstitial fibrosis quantification; type: in vivo, Male Wistar rats; conditions: febuxostat in both RK and RK+OA rats
Procedure: Male Wistar rats (295-340 g) were used to produce rats with remnant kidney (RK) as follows. […] Rats were then assigned to one of four treatment groups: Group 1, RK control rats (n=7); Group 2, RK+febuxostat (Fx) rats (n=8); Group 3, RK+oxonic acid (OA) rats (n=6); and Group 4, RK+OA+Fx (n=10). Oxonic acid (OA) (Sigma-Aldrich, St Louis Mo., USA), administered at 750 mg/kg body weight daily by oral gavage, was given starting the day after the ⅚ nephrectomy. […] Arteriolar morphology was assessed by indirect peroxidase immunostaining for alpha-smooth muscle actin (DAKO Corp, Carpinteria, Calif., USA). […] The degree of tubulointerstitial fibrosis was quantified in 10 non-crossed fields of cortex (100×) per biopsy. Slides were analyzed by light microscopy (Olympus BX51; Olympus American, Melville, N.Y., USA) and captured by a digital video camera (CoolSnap Pro; Media Cybernetics, Silver Spring, Md., USA). Pictures were processed on a computer and analyzed using Image Pro-Plus (version 5.0; Media Cybernetics, Silver Spring, Md., USA). Taking advantage of the capabilities of color recognition with this software, positive blue-stained areas (fibrosis) were selected and quantified in pixel units; glomeruli and vessels were previously excluded from the field. For each biopsy, the mean amount of positive blue-stained area was calculated by averaging the values from ten examined fields.

[3] = system: normal Sprague-Dawley rats; assay: Water intake in normal rats (earlier data of the laboratory); type: in vivo; conditions: previous data of this laboratory

## Cc1nc(-c2ccc(OCC(C)C)c(C#N)c2)sc1C(=O)O [febuxostat, 2-[3-cyano-4-(2-methylpropoxy)phenyl]-4-methylthiazole-5-carboxylic acid]
Remnant kidney (RK) rats [1]; RK rats with and without hyperuricemia
  Rise of urinary protein excretion (in words): prevented the rise of urinary protein excretion
Remnant kidney (RK) rats [1]; RK+Fx and RK+OA+Fx rats, end of Week 4
  Urinary protein excretion, lower than the values in the respective control groups: 75-80%
Remnant kidney (RK) rats [2]
  Tubulointerstitial (TI) fibrosis (in words): significantly decreased
[3]
  Effect on water intake: no effect on water intake
